Reference: US10336724B2, “D-amino acid oxidase inhibitors and therapeutic uses thereof” (SyneuRx International (Taiwan) Corp., priority 2017, dated 2019)

Key:
[1] = target: pkDAAO (porcine kidney DAAO) (Sus scrofa (Pig), UniProt P00371); assay: pkDAAO (porcine kidney DAAO) activity, D-Proline substrate, OPD OD450; assay type: biochemical
Method: The pkDAAO (porcine kidney DAAO) activity was measured by using D-Proine as a substrate to produce hydrogen peroxide (H2O2). The produced H2O2 would be oxidized by peroxidase, and the produced free radicals would further react with 1,2-Phenylenediamine (OPD) reagent. […] The OD450 would be measured to represent the activity of pkDAAO. All compounds were dissolved in DMSO. Each compound was diluted with DMSO in 3 or 4-fold serial dilution to create a 9-point dose response curve. Each sample was added in triplicate, 10 μL/well, into 96-well assay microplate. Positive control wells were added with 10 μL of DMSO. The diluted compounds were incubated with pkDAAO in dark for 10 minutes and then reacted with D-Proline. The final reaction mixture was composed of 0.01 U/mL pkDAAO, 0.03% OPD, 25 U/mL HRP and 40 mM D-Proline in PBS. The reaction plates were then incubated in the dark at room temperature. The OD450 absorbance readout was detected at 0 and 20 minute by Molecular Device Spectra Max Plus reader. The percentage of inhibition values for each well were calculated with the following equation: The percentage of inhibition=(OD450sample, 20 min−OD450sample, 0 min)/(OD450DMSO, 20 min−OD450DMSO, 0 min)×100%
(§1) The nonlinear curve fitting model in GraphPad Prism 5 was used to calculate IC50 value for each compound.

[2] = target: hDAAO (human DAAO) (Homo sapiens (Human), UniProt P14920); assay: hDAAO (human DAAO) activity, D-serine substrate, Amplex Red fluorescence; assay type: biochemical
Sequence of hDAAO (human DAAO) (P14920 whole entry): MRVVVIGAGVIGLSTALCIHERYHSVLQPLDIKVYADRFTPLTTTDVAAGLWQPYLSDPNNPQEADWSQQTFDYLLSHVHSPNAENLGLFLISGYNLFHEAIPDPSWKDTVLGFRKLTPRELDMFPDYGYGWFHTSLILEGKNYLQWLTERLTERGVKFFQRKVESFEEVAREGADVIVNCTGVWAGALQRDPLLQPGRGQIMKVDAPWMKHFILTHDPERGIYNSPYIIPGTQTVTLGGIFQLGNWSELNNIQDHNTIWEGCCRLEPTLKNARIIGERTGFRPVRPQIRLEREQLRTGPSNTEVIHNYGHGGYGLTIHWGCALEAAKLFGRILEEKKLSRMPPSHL
Method: The hDAAO (human DAAO) activity was measured by using D-serine as a substrate to produce H2O2. The produced H2O2 would be oxidized by peroxidase, and the produced free radicals would further react with Amplex Red reagent to emit fluorescence. The intensity of fluorescence at 590 nm would be measured to represent the activity of hDAAO. All compounds were dissolved in DMSO. Each compound was diluted with DMSO in 3-fold serial dilution to create a 9-point dose response curve. Each sample was added in triplicate, 1 μL/well, into 96-well black plates. Positive control wells were added with 1 μL of DMSO. Then 49 μL of assay buffer (100 mM Tris-HCl, pH 8.5) containing 1.2 ng/mL hDAAO, 900 nM FAD, 0.2 units/mL HRP, and 100 μM Amplex Red was added to each well of the plate using a multichannel pipette. Next, 50 μL of 100 mM D-Serine in assay buffer was added. The reaction plates were then incubated in the dark at room temperature. The fluorescence readout was detected at 0 and 20 minute by Molecular Device Gemini EM fluorescence reader using the following settings: excitation filter 530 nm, and emission filter 590 nm. The percentage of inhibition values for each well was calculated with the following equation: The percentage of inhibition=(fluorescencesample, 20 min−fluorescencesample, 0 min)/(fluorescenceDMSO, 20 min−fluorescenceDMSO, 0 min)×100%
as §1

Sequence of pkDAAO (porcine kidney DAAO) (P00371 whole entry): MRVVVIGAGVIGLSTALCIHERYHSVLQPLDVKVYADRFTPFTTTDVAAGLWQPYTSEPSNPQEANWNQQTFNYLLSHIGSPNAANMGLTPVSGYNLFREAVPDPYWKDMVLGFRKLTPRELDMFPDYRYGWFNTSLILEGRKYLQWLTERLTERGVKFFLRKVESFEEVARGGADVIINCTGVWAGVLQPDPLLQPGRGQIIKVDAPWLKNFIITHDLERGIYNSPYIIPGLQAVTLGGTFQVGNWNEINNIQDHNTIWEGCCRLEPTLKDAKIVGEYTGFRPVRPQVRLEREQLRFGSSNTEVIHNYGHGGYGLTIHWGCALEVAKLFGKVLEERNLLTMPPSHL

## O=C(Oc1cc(Cc2cccc3ccccc23)n[nH]c1=O)c1cc(CCc2ccccc2)n[nH]1 [Compound 62, 6-(naphthalen-1-ylmethyl)-3-oxo-2,3-dihydropyridazin-4-yl 3-phenethyl-1H-pyrazole-5-carboxylate]
[1]
  IC50: 10 to 100 nM
[2]
  IC50: 100 to 1000 nM

## O=C(Oc1cc2c(Cl)cccc2[nH]c1=O)c1cc(CCc2ccc(Cl)cc2)n[nH]1 [Compound 32, 5-chloro-2-oxo-1,2-dihydroquinolin-3-yl 3-(4-chlorophenethyl)-1H-pyrazole-5-carboxylate]
[1]
  IC50: 100 to 500 nM
[2]
  IC50: 100 to 1000 nM

## O=C(Oc1cc2c(Cl)cccc2[nH]c1=O)c1cc(CCc2ccccc2)n[nH]1 [Compound 27, 5-chloro-2-oxo-1,2-dihydroquinolin-3-yl 3-phenethyl-1H-pyrazole-5-carboxylate]
[1]
  IC50: 100 to 1000 nM
[2]
  IC50: 100 to 500 nM

## O=C(Oc1cc(CSc2ccc(Cl)c(Cl)c2)c[nH]c1=O)c1cc(CCc2ccccc2)n[nH]1 [Compound 49, 5-(((3,4-dichlorophenyl)thio)methyl)-2-oxo-1,2-dihydropyridin-3-yl 3-phenethyl-1H-pyrazole-5-carboxylate]
[1]
  IC50: 100 to 1000 nM
[2]
  IC50: 1000 to 10000 nM

## O=C(Oc1coc(CO)cc1=O)c1cc(CCc2ccc(Cl)cc2)c[nH]1 [Compound 5, 6-(hydroxymethyl)-4-oxo-4H-pyran-3-yl 4-(4-chlorophenethyl)-1H-pyrrole-2-carboxylate]
[1]
  IC50: 10000 to 100000 nM
[2]
  IC50: 10000 to 100000 nM

## O=C(Oc1cc(Cc2ccc3ccccc3c2)n[nH]c1=O)c1cc(CCc2ccccc2)n[nH]1
[1]
  IC50: 10 to 100 nM
[2]
  IC50: 100 to 500 nM

## O=C(Oc1cc(CCc2cccc3ccccc23)n[nH]c1=O)c1cc(CCc2ccccc2)n[nH]1
[1]
  IC50: 10 to 100 nM
[2]
  IC50: 100 to 500 nM

## O=C(Oc1cc2c(Cl)cccc2[nH]c1=O)c1cc(CCc2ccccc2)c[nH]1 [Compound 23, 5-chloro-2-oxo-1,2-dihydroquinolin-3-yl 4-phenethyl-1H-pyrrole-2-carboxylate]
[1]
  IC50: 1000 to 10000 nM
[2]
  IC50: 100 to 1000 nM

## O=C(Oc1coc(CSc2ccc(Cl)cc2)cc1=O)c1cc(CCc2ccc(Cl)cc2)c[nH]1 [Compound 14, 6-(((4-chlorophenyl)thio)methyl)-4-oxo-4H-pyran-3-yl 4-(4-chlorophenethyl)-1H-pyrrole-2-carboxylate]
[1]
  IC50: 10000 to 100000 nM
[2]
  IC50: 1000 to 10000 nM

## O=C(Oc1cc(CCc2cc(F)cc(F)c2)n[nH]c1=O)c1cc(CCc2ccc(Cl)cc2)c[nH]1 [Compound 56, 6-(3,5-difluorophenethyl)-3-oxo-2,3-dihydropyridazin-4-yl 4-(4-chlorophenethyl)-1H-pyrrole-2-carboxylate]
[1]
  IC50: 10000 to 100000 nM
[2]
  IC50: 1000 to 10000 nM

## O=C(Oc1cc(Cc2cccc3ccccc23)n[nH]c1=O)c1cc(Cc2ccccc2)n[nH]1 [Compound 77, 6-(naphthalen-1-ylmethyl)-3-oxo-2,3-dihydropyridazin-4-yl 3-benzyl-1H-pyrazole-5-carboxylate]
[1]
  IC50: 10 to 100 nM
[2]
  IC50: 100 to 1000 nM

## O=C(Oc1cc2c(Cl)cccc2[nH]c1=O)c1cc(CCc2ccc(Cl)cc2)c[nH]1 [Compound 18, 5-chloro-2-oxo-1,2-dihydroquinolin-3-yl 4-(4-chlorophenethyl)-1H-pyrrole-2-carboxylate]
[1]
  IC50: 1000 to 10000 nM
[2]
  IC50: 100 to 500 nM

## O=C(Oc1cc(Cc2cccc3ccccc23)n[nH]c1=O)c1cc(CCc2ccccc2Cl)n[nH]1
[1]
  IC50: 10 to 100 nM
[2]
  IC50: 100 to 500 nM

## O=C(Oc1cc(CCc2cccc3ccccc23)n[nH]c1=O)c1cc(CCc2ccc(Cl)cc2)n[nH]1
[1]
  IC50: 10 to 100 nM
[2]
  IC50: 100 to 500 nM

## O=C(Oc1cc(Cc2cccc3ccccc23)n[nH]c1=O)c1cc(CCc2ccc(F)cc2)n[nH]1 [Compound 72, 6-(naphthalen-1-ylmethyl)-3-oxo-2,3-dihydropyridazin-4-yl 3-(4-fluorophenethyl)-1H-pyrazole-5-carboxylate]
[1]
  IC50: 10 to 100 nM
[2]
  IC50: 100 to 500 nM

## O=C(Oc1cc(CSc2ccc(Cl)c(Cl)c2)c[nH]c1=O)c1cc(CCc2ccccc2)c[nH]1 [Compound 50, 5-(((3,4-dichlorophenyl)thio)methyl)-2-oxo-1,2-dihydropyridin-3-yl 4-phenethyl-1H-pyrrole-2-carboxylate]
[1]
  IC50: 1000 to 10000 nM
[2]
  IC50: 1000 to 10000 nM

## O=C(Oc1coc(CO)cc1=O)c1cc2occc2[nH]1 [Compound 9, 6-(hydroxymethyl)-4-oxo-4H-pyran-3-yl 4H-furo[3,2-b]pyrrole-5-carboxylate]
[1]
  IC50: 10000 to 100000 nM
[2]
  IC50: 1000 to 10000 nM

## O=C(Oc1cc(Cc2cccc3ccccc23)n[nH]c1=O)c1cc(CCc2cccc(Cl)c2)n[nH]1 [Compound 67, 6-(naphthalen-1-ylmethyl)-3-oxo-2,3-dihydropyridazin-4-yl 3-(3-chlorophenethyl)-1H-pyrazole-5-carboxylate]
[1]
  IC50: 10 to 100 nM
[2]
  IC50: 100 to 500 nM
